Reference: US20230358677A1, “Reversible Excited-State Photoacids and Photobases as Dynamic Fluorescence Sensors of Protonic Species” (California Institute of Technology, priority 2022, published 2023)

Legend:
physchem = details: for k+q,corr: corrected rate constant, ESPT from NS—NH2* to the proton acceptor; for k+q: direct excited-state proton transfer from NS—NH2* to the proton acceptor; for KSV,quencher (Equation 7) / KSV,quencher (traditional linearized Stern-Volmer): quenching of NS—NH2*; for pKa,BH+ (Equation 7), value after the slash: equals titration-curve values of b153; for KSV,OH−: Equation 7
From the text: Assuming that photoluminescence quenching occurs by ESPT from NS—NH2* to OH^−(aq), the data support that when aOH− is small (i.e. at pH less than about 12), ESPT can be quite slow compared to the excited-state lifetime of NS—NH2*, due to mass action (FIG. 2B). The non-unity quantum yield for ESPT in weakly alkaline aqueous solutions afforded us an opportunity to evaluate a series of aqueous proton-accepting quenchers (glycine (Gly(aq)), proline (Pro(aq)), and trifluoroethanol (TFE(aq))) for their ability to undergo ESPT with NS—NH2*. In order to clearly observe ESPT to a species other than OH^−(aq), added proton-accepting quenchers had to be more basic (ΔG^o<0), or slightly more acidic (ΔG^o>0), than NS—NH2*, and less basic than OH^−(aq). […] As pH values approach and pass the pKa of the proton-accepting quencher, the rate of ESPT slows from a decrease in the concentration of proton-accepting quencher due to its protonation. This is supported by observations from analogous experiments performed using different concentrations of quencher. Best fits of measured photoluminescence spectroscopy data to a modified Stern-Volmer equation for a two-quencher system, including both OH^−(aq) and proton-accepting quencher, provided bimolecular rate constants for deprotonation of the photoacid by each quencher,
where KSV,OH−=K*^−1b and KSV,quencher=k+q,quencherτo,PAH* are the dynamic quenching constants for excited-state proton transfer to OH^−(aq) and proton-accepting quencher, respectively, k+q,quencher is the bimolecular rate constant (M^−1 s^−1) for ESPT quenching by the proton-accepting quencher, and the sum of the activities of B and BH^+ is approximated as the total concentration of the proton-accepting quencher. While the pKa of the proton-accepting quencher is an adjustable parameter during best fitting, extracted pKa values are close to pKa values obtained from the acid-base titration curves of the proton-accepting quenchers. Changing the proton-accepting quencher to one with a smaller pKa value results in a slower non-diffusion-limited rate constant for ESPT with NS—NH2*. The observation of ESPT directly from NS—NH2* to each of two different amino acids, Gly and Pro, is notable, and may have important implications for biological systems where direct protonation of proteins can induce cellular responses.
Table 2 lists driving-force-dependent rate constants for direct excited-state proton transfer from NS—NH2* to various proton-accepting quenchers.
(§1) Several embodiments use the steady-state ultraviolet-visible electronic absorption and photoluminescence spectroscopy for characterization. Equal amounts of aromatic amine photoacids are portioned into five separate 100 mL volumetric flasks. For the non-proton-accepting quencher experiments, the five flasks are filled to the volumetric marker with aqueous solutions of 1 M HCl, 1 M KOH, 2 M KOH, 3 M KOH, and 4 M KOH. The aqueous 1 M KOH solution is titrated with the aqueous 1 M HCl solution to reach the desired pH values from 14 to 6, and the H^+ activities are measured using a pH meter (pH/Ion 510). […] Electronic absorption spectra and photoluminescence spectra are acquired using absorbance and fluorescence spectrometer(s), using a square-bottom quartz cuvette (1 cm path length) at room temperature. Electronic absorption spectra are baselined on a spectrum of deionized water and were corrected for scattering of light. Photoluminescence spectra are recorded by exciting with 310 nm light, slit widths for the excitation and emission monochromators were set to 5 nm, and the PMT detector voltage is set to 600 V. Photoluminescence spectra are corrected for changes in solution refractive index, inner filter effects and the wavelength-dependent correction factor of the fluorimeter.

[1] = proton acceptor, aqueous; cited from earlier work
[2] = Stern-Volmer analysis of quenching of HPhenDS by proton acceptors; format: physicochemical; details: quenching of aqueous HPhenDS, constant ionic strength
Method: ESPT availability and ESPT to water curves are calculated from steady-state absorption and photoluminescence data for 15 μM HPhenDS across the pH window indicated at constant ionic strength (except for pH values below 0). Concentrations of all buffers were simulated to be 1 M total salt added. Ability to sense is predicted by estimating total concentration at a given pH value based on the pKa value of the buffer and fit to a Henderson-Hasselbalch-type equation. The resultant concentration is then multiplied by the ESPT availability of HPhenDS at each pH value.
FIGS. 21A and 21B illustrate Stern-Volmer analysis for quenching constant Ksv in accordance with an embodiment.

[3] = 1 M aqueous solution titrated with 4 M KOH
[4] = cited from earlier work
[5] = cited from earlier work; remark: listed apart in the source
[6] = Stability of dye fluorescence near an operating gas diffusion electrode
[7] = Marcus-Cohen bond-energy-bond-order (BEBO) analysis of quenching rate constants; format: physicochemical
From the text: Several embodiments provide accurate quantification of excited-state Brønsted-Lowry acidity and reorganization energy of weak photoacids using Marcus-Cohen bond-energy-bond-order (BEBO) theory. Data for this series of proton-accepting quenchers analyze the dependence of driving force on ESPT quenching rate constants and assess the validity of Marcus normal region behavior, as has been performed numerous times for excited-state electron transfer and proton-coupled electron transfer. Like excited-state electron-transfer quenching in polar solvents, ESPT is proposed to proceed through formation of an excited-state encounter complex between reactants prior to proton transfer, but unique to ESPT is dissociation of an excited-state encounter complex between products after proton transfer. […]
where ΔGEC,R^o, ΔGPT^oand −ΔGEC,P^o are the standard Gibbs free energy differences for the individual reaction steps in the excited-state proton-transfer reaction sequence. Kinetic data (Equation 8) and thermodynamic data (Equation 11) are analyzed using Marcus-Cohen bond-energy-bond-order (BEBO) theory, which is based on transition-state theory and results in the following relationship between ΔGPT^‡ and ΔGPT^o, […]

[8] = Acid-base titration of aqueous photoacid with absorption and steady-state photoluminescence detection (Henderson-Hasselbalch / Stern-Volmer fits, OH− as quencher)
From the text: FIGS. 2A through 2C illustrate acid-base titration of an aqueous solution of NS—NH2 photoacid with absorption and photoluminescence detection in accordance with an embodiment.
where aOH− is the activity of OH^−(aq), K*b pseudo is an erroneous observed equilibrium constant for base dissociation and KSV,OH− is the Stern-Volmer quenching constant, which is strictly dimensionless but reported here in units of M^−1 to be consistent with its typical usage. Unlike the Henderson-Hasselbalch equation, the Stern-Volmer equation is also applicable to non-equilibrium processes.
and KSV,OH−=k+q,OH−τo,PAH*, where τ is the excited-state lifetime (s) of NS—NH2* in the absence (τo,PAH*) or presence (τPAH*) of OH^− quencher and k+q,OH− is the bimolecular rate constant (M^−1 s^−1) for quenching of NS—NH2* by OH^− (forward direction of Reaction 1 with B=OH^−(aq)).
as §1, with “fluorimeter. For experiments that use non-OH^− proton-accepting quenchers, equal amounts of the quencher are added to the dry volumetric flask intended to form the acidic and basic aqueous photoacid solutions, to prevent changes in total quencher concentration during the titration, and titrations are performed similarly to those in the absence of added proton-accepting quenchers. Although the total quencher concentration is kept constant throughout the titration, the activity of the deprotonated quencher species varied as a function of solution pH according to Equation 3. Ionic strength is matched at the most alkaline pH values; however, it is experimentally difficult to maintain the same ionic strength throughout the titration. Normalized photoluminescence intensities as a function of solution pH are obtained by dividing the corrected photoluminescence intensities at the wavelength of maximum photoluminescence to the maximum corrected photoluminescence intensity at the same wavelength.” for “fluorimeter.”

[9] = conjugate acid of proton acceptor
[10] = 1 M total trifluoroethanol present

With Phosphate the “pKa,BH+ (Equation 7), value before the slash” value (physchem) was 11.4/—, the “bimolecular rate constant, deprotonation of NS—NH2* by the quencher” value (“bimolecular rate constant … by the quencher” below) (physchem; 0.17 M total phosphate) was “(11±2)×10^8 M^−1 s^−1” and the “k+q,corr” value (physchem) was 22.6 ± 3.8 10^8 M^−1 s^−1. The “k+q” value (physchem) was 5.4 ± 0.9 10^8 M^−1 s^−1, the “KSV,quencher (Equation 7)” value (physchem; 0.17 M total phosphate) was 2.2 ± 0.3 M⁻¹ and the “KSV,quencher (traditional linearized Stern-Volmer)” value (physchem; 0.17 M total phosphate) was 3.4 ± 0.1 M⁻¹. For the same compound, the “Diffusion Coefficient” value [1] was 8.79 10^−6 cm^2/s.
With `O=C(O)O` [Bicarbonate] the KSV [2] was “about 0.6051 M^−1”.
For `NCC(=O)O` [Glycine], the “bimolecular rate constant … by the quencher” value (physchem; 1 M total quencher) was “(0.39±0.02)×10^8 M^−1 s^−1”, the “bimolecular rate constant … by the quencher” value (physchem; 2 M total glycine) was “(0.90±0.04)×10^8 M^−1 s^−1” and the “pKa,BH+ (Equation 7), value before the slash” value (physchem; [9]) was 9.7. The “pKa,BH+ (Equation 7), value after the slash” value (physchem; [9]) was 9.9, the “k+q,corr” value (physchem) was 1.44 ± 0.07 10^8 M^−1 s^−1 and the “k+q” value (physchem) was 0.39 ± 0.02 10^8 M^−1 s^−1. The “KSV,quencher (Equation 7)” value (physchem; 1 M total quencher) was 0.18 ± 0.01 M⁻¹, the “KSV,quencher (traditional linearized Stern-Volmer)” value (physchem; 1 M total quencher) was 0.19 ± 0.01 M⁻¹ and the “KSV,quencher (Equation 7)” value (physchem; 2 M total glycine) was 0.20 ± 0.01 M⁻¹. The “Diffusion Coefficient” value [1] was 10.60 10^−6 cm^2/s and the “pKa from acid-base titration curve” value [3] was 9.9.
For Trifluoroethanol, the “pKa, literature value” [4] is given as 12.4, the “bimolecular rate constant … by the quencher” value (physchem; 1 M total quencher) is given as “(11±2)×10^8 M^−1 s^−1” and the “pKa,BH+ (Equation 7), value before the slash” value (physchem; [9]) is given as 12.4. The “pKa,BH+ (Equation 7), value after the slash” value (physchem; [9]) was 12.6, the “k+q,corr” value (physchem) was 58.7 ± 11.5 10^8 M^−1 s^−1 and the “k+q” value (physchem) was 11.2 ± 2.2 10^8 M^−1 s^−1. For the same compound, the “KSV,quencher (Equation 7)” value (physchem; 1 M total quencher) was 5 ± 1 M⁻¹, the “KSV,quencher (traditional linearized Stern-Volmer)” value (physchem; 1 M total quencher) was 6.2 ± 0.1 M⁻¹ and the “Diffusion Coefficient” value [1] was 6.00 10^−6 cm^2/s. For the same compound, the “pKa from acid-base titration curve” value [3] was 12.6.
For `O=C([O-])[O-].[Na+].[Na+]` [Carbonate], the KSV [2] was “about 1.02 M^−1”.
With `O=CO` [Formate] the KSV [2] was “about 0.4623 M^−1”.
In the case of `CC(=O)O` [Acetate], the KSV [2] is reported as “about 0.1548 M^−1”.
In the case of Hydroxide, the “pKa,BH+ (Equation 7), value before the slash” value (physchem; [9]) is reported as 14/—, the “k+q,corr” value (physchem) is reported as 100 ± 3 10^8 M^−1 s^−1 and the “k+q” value (physchem) is reported as 100 ± 3 10^8 M^−1 s^−1. The “Diffusion Coefficient” value [1] was 52.70 10^−6 cm^2/s.
For `O=S(=O)(O)c1cc(S(=O)(=O)O)c2ccc3c(O)cc(O)c4ccc1c2c43` [DHPDS, 6,8-dihydroxy-1,3-pyrenedisulfonic acid], the “pK*a” value ([5]; strong photoacid) is given as “≈ 0”, the “fluorescent signal during GDE operation” value ([6]; cathodic current densities of 100 mA/cm^2 in magnitude, or larger) is given as “Some loss of fluorescent signal” and the “photoluminescence intensity during GDE operation” value ([6]; current density between 0 and −20 mA/cm^2) is given as “no significant decrease in photoluminescence intensity”.
With `Nc1cccc2c(S(=O)(=O)[O-])cccc12.[Na+]` [NS—NH2, 5-aminonaphthalene-1-sulfonic acid sodium salt] the “ΔGo,PT‡” value ([7]; Gibbs free energy of activation of proton-transfer step at ΔGPT°=0) was 0.080±0.005 eV, the ““true” pK*a” value ([7]; Marcus-Cohen BEBO analysis) was 11.7±0.1 and the pKa ([8]; aqueous solution, ground-state pKa, aromatic amine, aqueous) was greater than 17. For the same compound, the “KSV,τ,OH− (linearized Stern-Volmer)” value ([8]; lifetime data, linearized Stern-Volmer fit, OH−(aq) quencher) was “about 55±1 M^−1”, the “KSV,τ,OH−” value ([8]; lifetime data, non-linear Stern-Volmer fit, OH−(aq) quencher) was “about 54±6 M^−1” and the “bimolecular rate constant k+q,τ,OH−” value ([8]; lifetime data, forward direction of Reaction 1 with B=OH−(aq)) was “about (12±1)×10^9 M^−1 s^−1”. The “KSV,ss,OH−” value ([8]; steady-state photoluminescence, non-linear Stern-Volmer fit, OH−(aq) quencher) was “about 47±1 M^−1”, the “KSV,ss,OH− (linearized Stern-Volmer)” value ([8]; steady-state photoluminescence, traditional linearized Stern-Volmer fit, OH−(aq) quencher) was “about 46±1 M^−1” and the “bimolecular rate constant, deprotonation of NS—NH2* by OH−(aq)” value (from here on “bimolecular rate constant … by OH−(aq)”) (physchem; 0.17 M total phosphate present) was “(163±8)×10^8 M^−1 s^−1”. For the same compound, the “bimolecular rate constant … by OH−(aq)” value (physchem; 1 M total glycine present) was “(43±1)×10^8 M^−1 s^−1”, the “bimolecular rate constant … by OH−(aq)” value (physchem; 1 M total proline present) was “(47±2)×10^8 M^−1 s^−1” and the “bimolecular rate constant … by OH−(aq)” value (physchem; [10]) was “(60±30)×10^8 M^−1 s^−1”. For the same compound, the “bimolecular rate constant … by OH−(aq)” value (physchem; 2 M total glycine present) was “(38±2)×10^8 M^−1 s^−1”, the “KSV,OH−” value (physchem; 0.17 M total phosphate present) was 37 ± 2 M⁻¹ and the “KSV,OH−” value (physchem; 1 M total glycine present) was 20 ± 1 M⁻¹. For the same compound, the “KSV,OH−” value (physchem; 1 M total proline present) was 22 ± 1 M⁻¹, the “KSV,OH−” value (physchem; [10]) was 30 ± 10 M⁻¹ and the “KSV,OH−” value (physchem; 2 M total glycine present) was 8.6 ± 0.4 M⁻¹.
For `Oc1ccc2ccc3cccc4ccc1c2c34` [1-hydroxypyrene], the “ground state pKa” value [5] is listed as “about 9”.
